Laboratory results: patent publication US5958770A, “Glycoalkaloids” (priority 1990, dated 1999)
Like-named read-outs stand apart in the source and are kept apart here.

Experiments:
[1] = tested on: ovarian cancer cells, HeLa cells, lymphoblastoid cells, fibroblasts; assay: Cytotoxicity / inhibition of tritiated thymidine uptake, cell types taken together; conditions: for inhibition of tritiated thymidine uptake / cytotoxicity (words): 11.3 μM/L, various cell types
Description: (§1) The inhibition of cell replication by steroid alkaloids is determined by the inhibition of the incorporation of ^3 H thymidine into DNA. Using this technique, it should be possible to monitor any preferential inhibition of uptake of ^3 H thymidine by cancer cells.
(§2) Cells were maintained as monolayers in RPM1-1640 tissue culture media (Grant Island Biological Co) buffered with N-2-hydroxy-ethylpiperazine-N-2-ethanesulphonic acid pH 7.5 and supplemented with 10% heat inactivated fetal calf serum (FCS): (i) a human ovarian cancer cell line (C180-135), (ii) HeLa cells, (iii) human fibroblasts, and (iv) as a cell suspension of lymphoblastoid cells (EBV transformed lymphocytes). Monolayers were trypsinized to form a cell suspension. […] Cell concentration was adjusted to 2×10^5 cells/ml, and 2×10^4 cells were added in replicates of 10 to the wells (1×10^5 /ml well) of HA microtitre plates (Millipore Corp., USA). The cells were preincubated at 37.5° C. for 7 hours prior to the addition of 50 μl of the cytotoxic drug followed by the addition of 50 μl 5 uCi/ml of ^3 H thymidine, in the same tissue culture media 21 hours later. Incubation was continued for a total of 24 hours, which includes the pre-incubation time.
(§3) Appropriate DMSO cytotoxicity studies were also conducted. Solasodine glycosides were supplied as a mixture (BEC), and as separate components, solamargine, solasonine, a mixture of di- and mono-glycosides and the aglycone solasodine. All cytotoxic drugs were further diluted with HIFCS/TCM before testing. 5×10^4 ovarian cancer cells (200 μl/chamber of a chamber of microscope slide (Lab Tek Miles Scientific) were used. Controls received 50 μl HIFCS/TCM and experimental chambers 50 μl of solasodine glycosides (BEC) 1.5-3.8 μM/L after 7 hrs preincubation, and incubated for a further 3 hrs. Similarly, the cells were treated with the aglycone solasodine 19.4-96.8 μM/L. The cells were fixed and examined by the Papanicolaou method.

[2] = tested on: ovarian cancer cells; assay: Inhibition of tritiated thymidine uptake, ovarian cancer cells
Description: as §1, §2, §3

[3] = tested on: HeLa cells; assay: cells
Description: as §1, §2, §3

[4] = tested on: human fibroblasts; assay: cells
Description: as §1, §2, §3

[5] = tested on: lymphoblastoid cells (EBV transformed lymphocytes); assay: cells
Description: as §1, §2, §3

[6] = tested on: unstimulated and stimulated lymphocytes; conditions: for cytotoxicity (words): unstimulated and stimulated lymphocytes
Description: (§5) This was cultured for 48 hours and pulsed with tritiated thymidine for a further 24 hours. In the inhibition studies, the cell concentration was 8×10^5 /ml.
(§6) All cells were harvested by vacuum filtration by washing in 250 μl of each of phosphate buffered saline, 5% trichloroacetic acid, 1.0M NaCl and 95% ethanol and subjected to β-scintillatian counting. Similarly, peripheral human blood lymphocytes were isolated and cultured 2×10^5 lymphocytes in CO2 1640TCM 10% HIFCS. Lymphocytes were stimulated with 20 μg/ml PHA, Con A or PWM, and cultured for 48 hrs followed by a 24 hr pulse. […] Cell concentrations were 8×10^4 /well total volume 250 μl. The dpm of the experimental replicates were expressed as a percentage of the mean value of the controls, and the mean value of the experimental replicates calculated.

[7] = in vitro; conditions: human, unstimulated lymphocytes
Description: as §5, §6

[8] = in vitro; conditions: human, pha stimulated lymphocytes
Description: as §5, §6

[9] = in vitro; conditions: human, con a stimulated lymphocytes
Description: as §5, §6

[10] = in vitro; conditions: human, pwm stimulated lymphocytes
Description: as §5, §6

[11] = tested on: unstimulated lymphocytes; assay: DMG cytotoxicity with carbohydrates, unstimulated lymphocytes; type: cell-based, human
Description: (§4) A mixture of solasodine glycosides (BEC), of which the active compound is solamargine and from which the aglycone solasodine is derived was prepared for use in cytotoxicity assays as determined by the uptake of tritiated thymidine. Inhibition studies were carried out with lactose, lactosyl-albumin, galactose or rhamnose (Sigma Chemical Co., USA). All experimental replicates were related to their own controls. Total volume of replicates was 250 μl (carbohydrates added in 50 μl tissue culture media+10% fetal calf serum), and the cell concentrations were 8×10^4 /ml.

[12] = tested on: Con A stimulated lymphocytes; assay: DMG cytotoxicity with carbohydrates, Con A stimulated lymphocytes; type: cell-based, human
Description: as §4

[13] = tested on: Sarcoma 180; assay: Survival of mice with Sarcoma 180, with and without rhamnose; type: in vivo
Description: Herston White mice with a body weight of approximately 30 g and aged 8-10 weeks served as recipients. Twelve mice were randomly chosen for each experimental group.
Sarcoma 180 tumour cells (5×10^5) were inoculated intraperitoneally into mice. This caused a mortality of 100% with a median survival time of 20 days in the control groups. A standard mixture of glycoalkaloids (BEC) was dissolved in dimethylsulfoxide at a concentration of 0.5 g BEC/100 ml dimethylsulfoxide. Similar solutions were made up but also contained 0.3125, 0.625 and 0.9375 g of rhamnose. These solutions were administered intraperitoneally in concentrations of 8 mg/kg animal weight for BEC (FIG. 9) without (-.tangle-solidup.-), and with 5 mg (-.quadrature.-), 10 mg (-.cndot.-) and 15 mg (-Δ-) rhamnose/kg animal weight. The first dose was given 0.5 hours after administration of the Sarcoma 180 tumour cells. The remaining three doses were given at daily intervals. Dimethylsulfoxide and rhamnose had no effect on Sarcoma 180 activity in the absence of BEC (-.smallcircle.-).

[14] = tested on: human cells, ovarian cancer cells, melanoma cells, cells infected with viruses, normal fibroblasts, normal bone marrow cells, leukemic cells and normal …; assay: Inhibition of the action of the mixture of solasodine glycosides by free sugars and sugars bound to bovine serum albumin; type: cell-based; conditions: free sugar and bound to bovine serum albumin
[15] = tested on: fibroblasts; assay: Solamargine cytotoxicity in presence and absence of carbohydrates, fibroblasts; type: cell-based, human; conditions: fibroblasts
Description: as §4

[16] = tested on: ovarian cancer cells; assay: Morphological examination of ovarian cancer cells (Papanicolaou); type: cell-based, human; conditions: 19.4-96.8 μM/L; FIG. 2A
Description: Appropriate DMSO cytotoxicity studies were also conducted.
A human ovarian cancer cell line (C180-135) was grown as mono layers and trypsinized to form a cell suspension. The cells were adjusted to a concentration of 1×10^5 /ml (viability ≥95%) and 200 μl placed in each of the eight chambers of microscope chamber slides (Lab Tek, Miles Scientific). After 21 hours preincubation at 37.5° C., 50 μl of supplemented tissue culture media were added to the control chambers. To the other chambers were added 50 μl of solasodine glycosides (BEC) to give final concentrations of 3, 4.8, 6.7, 7.7, 9.6, 11.1 and 15.3 μM/L. Similarly, to a separate chamber slide was added the aglycone solasodine (19.4-96.8 μM/L). The slides were incubated at 37.5° C. for a further 3 hours, and the cells fixed in 95% V/V alcohol and stained by the Papanicolaou method. Two other chamber slides were prepared in a similar manner, but the solasodine glycosides and the aglycone were added at a final concentration of 0.77, 1.5, 2.3, 3.1 and 3.8 μM/L after 7 hours preincubation, and they incubated for a further 17 hours.

[17] = 100 mg solasodine/kg; cited from earlier work
[18] = tested on: unstimulated lymphocytes; assay: Inhibition of tritiated thymidine uptake, unstimulated lymphocytes; conditions: much higher concentrations; unstimulated lymphocytes (FIG. 8e)
Description: as §5, §6

[19] = tested on: ovarian cancer cells; assay: Solamargine cytotoxicity in presence and absence of carbohydrates, ovarian cancer cells; type: cell-based, human; conditions: ovarian cancer cells
Description: as §4

[20] = tested on: HeLa cells; assay: Solamargine cytotoxicity in presence and absence of carbohydrates, HeLa cells; type: cell-based, human; conditions: HeLa cells
Description: as §4

[21] = tested on: lymphoblastoid cells; assay: Solamargine cytotoxicity in presence and absence of carbohydrates, lymphoblastoid cells; type: cell-based; conditions: lymphoblastoid cells
Description: as §4

## C[C@H]1CC[C@@H]2[C@@H](C)[C@H]3[C@H](C[C@H]4[C@@H]5CC=C6C[C@@H](O[C@@H]7O[C@H](CO)[C@H](O)[C@H](O[C@@H]8O[C@H](CO)[C@@H](O)[C@H](O)[C@H]8O)[C@H]7O[C@@H]7O[C@@H](C)[C@H](O)[C@@H](O)[C@H]7O)CC[C@]6(C)[C@H]5CC[C@]34C)N2C1 [solanine]
[1]
  lysosomotropic/mitochondrial inhibition: lack of lysosomotropic/mitochondrial inhibition

## C[C@@H]1CC[C@@]2(NC1)O[C@H]1C[C@H]3[C@@H]4CC=C5C[C@@H](O[C@@H]6O[C@H](CO)[C@H](O)[C@H](O[C@@H]7O[C@H](CO)[C@@H](O)[C@H](O)[C@H]7O)[C@H]6O[C@@H]6O[C@@H](C)[C@H](O)[C@@H](O)[C@H]6O)CC[C@]5(C)[C@H]4CC[C@]3(C)[C@H]1[C@@H]2C [Solasonine, solasonine]
[2]; Homo sapiens, read-out: Percentage Cell Survival
  viability at 11.3 µM: 93 ± 8%
[3]; Homo sapiens, HeLa, read-out: Percentage Cell Survival
  viability at 11.3 µM: 105 ± 9.5%
[4]; Homo sapiens, Fibroblast, read-out: Percentage Cell Survival
  viability at 11.3 µM: 96 ± 8.3%
[5]; Homo sapiens, Lymphoblastoid cell, read-out: Percentage Cell Survival
  viability at 11.3 µM: 117 ± 8%
[1]
  inhibition of tritiated thymidine uptake / cytotoxicity (words): ineffective
[1]; listed as solasonine
  inhibition of tritiated thymidine uptake / cytotoxicity (words): not cytotoxic
[6]
  cytotoxicity (words): ineffective
[6]; listed as solasonine
  cytotoxicity (words): absence of any effect
[7]
  viability at 11.3 µM: 97 ± 11.8%
[8]
  viability at 11.3 µM: 103 ± 5.7%
[9]
  viability at 11.3 µM: 97 ± 7%
[10]
  viability at 11.3 µM: 110 ± 3.8%

## O=C[C@H](O)[C@@H](O)[C@H](O)[C@H](O)CO [glucose]
[11]
  inhibition of the action of DMG: do not inhibit DMG
[12]
  inhibition of the action of DMG: inhibit the action of DMG
[13]
  effect on S180 activity in the absence of BEC: no effects
[14]
  inhibitory effect on the action of the mixture of solasodine glycosides: inhibitory effects

## CC(=O)N[C@@H]1C(O)O[C@H](CO)[C@@H](O)[C@@H]1O (stereo partly shown) [NAc mannosamine]
[14]
  inhibitory effect on the action of the mixture of solasodine glycosides: inhibitory effects

## CC(=O)NC1C(O)OC(CO)C(O)C1O (stereo not shown) [NAc mannose]
[14]
  inhibitory effect on the action of the mixture of solasodine glycosides: inhibitory effects

## CC(=O)N[C@@H]1[C@@H](O)[C@H](O)[C@@H](CO)O[C@@H]1O [NAc glucose]
[14]
  inhibitory effect on the action of the mixture of solasodine glycosides: inhibitory effects

## rhamnose
[15]
  inhibition of solamargine cytotoxicity: inhibition by rhamnose is also demonstrable
[11]
  inhibition of the action of DMG: do not inhibit DMG
[12]
  inhibition of the action of DMG: inhibit the action of DMG
[13]
  effect on S180 activity in the absence of BEC: no effects
[13]; mice with S180
  inhibition of the efficacy of BEC: inhibits the efficacy of BEC

## C[C@@H]1CC[C@@]2(NC1)O[C@H]1C[C@H]3[C@@H]4CC=C5C[C@@H](O)CC[C@]5(C)[C@H]4CC[C@]3(C)[C@H]1[C@@H]2C [solasodine]
[2]; higher concentrations (FIG. 7)
  cytotoxic effect of aglycone: increase in cytotoxicity
[16]
  morphological effect on ovarian cancer cells: did not have any observable effect
[13]; aglycone, 100 mg/kg
  effectiveness against S180: not effective
[1]
  lysosomotropic/mitochondrial inhibition: lack of lysosomotropic/mitochondrial inhibition
[1]; equivalent concentrations of solamargine (FIG. 6)
  cytotoxic effect of aglycone: does not exert a cytotoxic effect
[6]; equivalent concentrations of DMG
  cytotoxic effect of aglycone: does not exert a cytotoxic effect
[17]
  deaths in mice: does not produce any deaths
[18]
  cytotoxic effect of aglycone: substantial effect on unstimulated lymphocytes

## OC[C@H]1O[C@@H](O[C@H]2[C@H](O)[C@@H](O)C(O)O[C@@H]2CO)[C@H](O)[C@@H](O)[C@H]1O (stereo partly shown) [lactose, reference compound]
[19]
  inhibition of solamargine cytotoxicity: Partial inhibition
[20]
  inhibition of solamargine cytotoxicity: not inhibited
[21]
  inhibition of solamargine cytotoxicity: partial inhibition
[15]
  inhibition of solamargine cytotoxicity: completely inhibited
[14]
  inhibitory effect on the action of the mixture of solasodine glycosides: inhibitory effects

## O=C[C@@H](O)[C@@H](O)[C@H](O)[C@H](O)CO [mannose]
[14]
  inhibitory effect on the action of the mixture of solasodine glycosides: inhibitory effects

## CC(=O)N[C@H]1C(O)O[C@H](CO)[C@@H](O)[C@@H]1O (stereo partly shown) [NAc glucosamine]
[14]
  inhibitory effect on the action of the mixture of solasodine glycosides: inhibitory effects

## galactose [reference compound]
[19]
  inhibition of solamargine cytotoxicity: partial inhibition
[20]
  inhibition of solamargine cytotoxicity: not inhibited
[21]
  inhibition of solamargine cytotoxicity: partial inhibition
[15]
  inhibition of solamargine cytotoxicity: completely inhibited
[14]
  inhibitory effect on the action of the mixture of solasodine glycosides: inhibitory effects

## CC[C@]1(O)C[C@@H]2CN(CCc3c([nH]c4ccccc34)[C@@](C(=O)OC)(c3cc4c(cc3OC)N(C)[C@H]3[C@@](O)(C(=O)OC)[C@H](OC(C)=O)[C@]5(CC)C=CCN6CC[C@]43[C@@H]65)C2)C1 [vinblastine, reference compound]
[2]; Homo sapiens, read-out: LD50 (dose to inhibit 50% tritiated thymidine uptake)
  IC50: 9.5 µM
[3]; HeLa / OvCa
  TR50 (thymidine ratio relative to ovarian cancer cells): 0.28
[3]; Homo sapiens, HeLa, read-out: LD50 (dose to inhibit 50% tritiated thymidine uptake)
  IC50: 2.7 µM
[4]; FB / OvCa
  TR50 (thymidine ratio relative to ovarian cancer cells): 0.2
[4]; Homo sapiens, Fibroblast, read-out: LD50 (dose to inhibit 50% tritiated thymidine uptake)
  IC50: 1.9 µM
[4]; fibroblasts/lymphoblastoid cells
  TR50 for fibroblasts/lymphoblastoid cells: 0.73
[5]; LCL / OvCa
  TR50 (thymidine ratio relative to ovarian cancer cells): 0.27
[5]; human gammaherpesvirus 4, LCL, read-out: LD50 (dose to inhibit 50% tritiated thymidine uptake)
  IC50: 2.6 µM
[1]; normal versus cancer cells
  cytotoxicity to normal cells relative to cancer cells: equally or more cytotoxic to normal cells relative to cancer cells
[7]
  CC50: 11 µM
[8]
  CC50: 19.2 µM
[9]
  CC50: 7.8 µM
[10]
  CC50: 10.8 µM
